# Results as given in ChEMBL document CHEMBL3994598, “Silychristin: Skeletal Alterations and Biological Activities” (J Nat Prod, 2016).
# pIC50: −log10 of the molar value.
# Assays:
# TERT-RPE1 = assay: Cytotoxicity against human RPE1 cells at 0.0003 to 100 uM after 48 hrs by ATPlite assay; format: cell-based; settings: tert-rpe1, 48 h
# BJ = assay: Cytotoxicity against human BJ cells at 0.0003 to 100 uM after 48 hrs by ATPlite assay; format: cell-based
# PC-3 = assay: Cytotoxicity against human PC3 cells at 0.0003 to 100 uM after 48 hrs by ATPlite assay; format: cell-based; settings: pc-3, 48 h
# HepG2 = assay: Cytotoxicity against human HepG2 cells at 0.0003 to 100 uM after 48 hrs by ATPlite assay; format: cell-based; settings: hepg2, 48 h
# K562 = assay: Cytotoxicity against human K562 cells at 0.0003 to 100 uM after 48 hrs by ATPlite assay; format: cell-based; settings: k562, 48 h
# HL-60 = assay: Cytotoxicity against human HL60 cells at 0.0003 to 100 uM after 48 hrs by ATPlite assay; format: cell-based; settings: hl-60, 48 h
# MDA-MB-231 = assay: Cytotoxicity against human MDA-MB-231 cells at 0.0003 to 100 uM after 48 hrs by ATPlite assay; format: cell-based; settings: mda-mb-231, 48 h
# MCF7 = assay: Cytotoxicity against human MCF7 cells at 0.0003 to 100 uM after 48 hrs by ATPlite assay; format: cell-based; settings: mcf7, 48 h
# CAL-51 = assay: Cytotoxicity against human CAL51 at 0.0003 to 100 uM after 48 hrs by ATPlite assay; format: cell-based; settings: cal-51, 48 h
# [1] = Cytotoxicity against human primary prostate mesenchymal cells at 0.0003 to 100 uM after 48 hrs by ATPlite assay; format: cell-based; settings: primary prostate mesenchymal cell
# [2] = Antiradical activity assessed as gallic acid equivalents of Foline-Ciocalteu reagent reducing capacity at 1 mM preincubated for 5 mins followed by Na2CO3 addition measured after 90 mins
# [3] = Antioxidant activity assessed as DPPH radical scavenging activity after 30 mins; format: functional
# [4] = Antioxidant activity assessed as trolox equivalent of ABTS radical scavenging activity at 100 uM incubated for >= 5 mins; format: functional
# [5] = Partition coefficient, logP of the compound in octan-1-ol and phosphate buffer at pH 7.4 at 25 degC after 2 hrs by UV-vis spectrometer; format: physicochemical; settings: octan-1-ol/phosphate buffer
# Liver = assay: Antioxidant activity against tert-butyl hydroperoxide-induced lipoperoxidation in rat liver microsomal membranes incubated for 60 mins by TBARS assay; format: functional, cell membranes, Microsomal Membrane; settings: 1 h
Compound,Activity (TERT-RPE1),Activity (BJ),Activity (PC-3),Activity (HepG2),Activity (K562),Activity (HL-60),Activity (MDA-MB-231),Activity (MCF7),Activity (CAL-51),Activity [1],Activity [2] [equiv],pIC50 [3],Activity [4] [equiv],logD at 2 h [5],pIC50 (Liver)
COc1cc([C@H]2Oc3cc([C@H]4Oc5cc(O)cc(O)c5C(=O)[C@@H]4O)ccc3O[C@@H]2CO)ccc1O [SILYBIN A],Toxic,Toxic,Toxic,Toxic,Toxic,Toxic,Toxic,Toxic,Toxic,Toxic,–,–,–,–,–
COc1cc(-c2oc3c(O)cc([C@H]4Oc5cc(O)cc(O)c5C(=O)[C@@H]4O)cc3c2C)ccc1O,Toxic,Toxic,Toxic,Toxic,Toxic,Toxic,Toxic,Toxic,Toxic,Toxic,1.74,4.75,0.99,-0.74,5.39
CC[C@@]1(O)C(=O)OCc2c1cc1n(c2=O)Cc2cc3ccccc3nc2-1 [CAMPTOTHECIN],Toxic,Toxic,Toxic,Toxic,Toxic,Toxic,Toxic,Toxic,Toxic,Toxic,–,–,–,–,–
COc1cc(C2Oc3cc([C@H]4Oc5cc(O)cc(O)c5C(=O)[C@@H]4O)ccc3OC2CO)ccc1O (mixture of isomers) [SILIBININ],–,–,–,–,–,–,–,–,–,–,0.92,3.26,0.47,–,4.17
COc1cc([C@@H]2Oc3c(O)cc(-c4oc5cc(O)cc(O)c5c(=O)c4O)cc3[C@H]2CO)ccc1O,Toxic,Toxic,Toxic,Toxic,Toxic,Toxic,Toxic,Toxic,Toxic,Toxic,3.06,5.31,1.79,-1.01,5.26
COc1cc(C2Oc3c(O)cc([C@H]4Oc5cc(O)cc(O)c5C(=O)[C@@H]4O)cc3C2CO)ccc1O (stereo partly drawn) [SILICRISTIN],Non-Toxic,Non-Toxic,Non-Toxic,Non-Toxic,Non-Toxic,Non-Toxic,Non-Toxic,Non-Toxic,Non-Toxic,Non-Toxic,1.49,4.72,1.09,-0.39,4.99
COc1cc([C@@H]2Oc3cc([C@H]4Oc5cc(O)cc(O)c5C(=O)[C@@H]4O)ccc3O[C@H]2CO)ccc1O [SILYBIN B],Toxic,Toxic,Toxic,Toxic,Toxic,Toxic,Toxic,Toxic,Toxic,Toxic,–,–,–,–,–
COc1cc(-c2oc3c(O)cc(-c4oc5cc(O)cc(O)c5c(=O)c4O)cc3c2C)ccc1O,Toxic,Toxic,Toxic,Toxic,Toxic,Toxic,Toxic,Toxic,Toxic,Toxic,2.13,5.45,1.43,-0.24,5.19
COc1cc([C@@H]2Oc3c(O)cc([C@@H]4CC(=O)c5c(O)cc(O)cc5O4)cc3[C@H]2CO)ccc1O,Toxic,Toxic,Toxic,Toxic,Toxic,Toxic,Toxic,Toxic,Toxic,Toxic,1.24,4.37,0.77,-0.37,4.90
COc1cc(C2Oc3cc(-c4oc5cc(O)cc(O)c5c(=O)c4O)ccc3OC2CO)ccc1O (stereo not drawn) [DEHYDROSILYLBIN],Toxic,Toxic,Toxic,Toxic,Toxic,Toxic,Toxic,Toxic,Toxic,Toxic,1.29,5.03,0.56,–,4.89
COc1cc([C@@H]2Oc3c(O)ccc([C@H]4Oc5cc(O)cc(O)c5C(=O)[C@@H]4O)c3[C@H]2CO)ccc1O [ISOSILYCHRISTIN],Non-Toxic,Non-Toxic,Non-Toxic,Non-Toxic,Non-Toxic,Non-Toxic,Non-Toxic,Non-Toxic,Non-Toxic,Non-Toxic,1.74,4.27,0.65,-0.47,4.44
